ChEMBL document CHEMBL5512655, “Discovery of indolylacryloyl-derived oxacins as novel potential broad-spectrum antibacterial candidates” (Eur J Med Chem, 2024)
≈ marks a conversion by molar mass, not a printed value. Calls of active or inactive are those of the source. The calls are words filed in the database; no cut-off is given here.

Tests used:
Escherichia coli [1] = assay: Induction of lipid peroxidation in Escherichia coli assessed as malondialdehyde (MDA) level production; assay type: functional, organism-based
Escherichia coli [2] = assay: Anti-biofilm effect in Escherichia coli assessed as inhibition of biofilm formation by measuring reduction in exo-polysaccharide content at 6 times of MIC relative to control; assay type: functional
Staphylococcus aureus [3] = assay: Reduction in metabolic activity in methicillin-resistant Staphylococcus aureus N315 by Alamar Blue assay; assay type: functional, organism-based
Escherichia coli [4] = assay: Anti-biofilm effect in Escherichia coli assessed as biofilm destruction rate at 6 times of MIC; assay type: functional
[5] = Hemolytic activity in human red blood cells assessed as hemolysis rate at 64 ug/ml relative to control; assay type: toxicity, cell-based, Erythrocyte; conditions: red blood cells (erythrocytes), at 64 µg/mL, read-out: Activity
Cell membrane [6] = assay: Induction of cell membrane damage in Escherichia coli assessed as increase in density of red fluorescence at 4 times of MIC by Calcein-AM/PI dual staining based fluorescence microscopy; assay type: cell membranes
Staphylococcus aureus [7] = assay: Anti-biofilm effect in methicillin-resistant Staphylococcus aureus N315 assessed as biofilm destruction rate at 6 times of MIC; assay type: functional
Staphylococcus aureus [8] = assay: Antibacterial activity against methicillin-resistant Staphylococcus aureus N315 assessed as reduction in bacterial burden at 2 to 4 times of MIC measured upto 7 hrs by time-dependent kinetics assay; assay type: functional, organism-based
Staphylococcus aureus [9] = assay: Antibacterial activity against methicillin-resistant Staphylococcus aureus N315 assessed as reduction in bacterial burden at 2 to 4 times of MIC measured within 5 hrs by time-dependent kinetics assay; assay type: functional, organism-based
Staphylococcus aureus [10] = assay: Induction of lipid peroxidation in methicillin-resistant Staphylococcus aureus N315 assessed as malondialdehyde (MDA) level production at 4 time of MIC; assay type: functional, organism-based
Cell membrane [11] = assay: Induction of cytoplasmic membrane integrity loss in methicillin-resistant Staphylococcus aureus N315 assessed as increase in fluorescence intensity at MIC by Propidium iodide method (reference value: 554); assay type: cell membranes
Staphylococcus aureus [12] = assay: Antibacterial activity against methicillin-resistant Staphylococcus aureus N315 assessed as inhibition of bacterial growth measured after 24 hrs incubation; assay type: functional
Escherichia coli [13] = assay: Antibacterial activity against Escherichia coli assessed as resistance development measured after 11 generations; assay type: functional, organism-based
Staphylococcus aureus [14] = assay: Induction of lipid peroxidation in methicillin-resistant Staphylococcus aureus N315 assessed as malondialdehyde (MDA) level production; assay type: functional, organism-based
Escherichia coli [15] = assay: Induction of ROS production in Escherichia coli assessed as fluorescence intensity by DCFH-DA (dichlorofluorescin diacetate) probe based assay; assay type: functional, organism-based
Staphylococcus aureus [16] = assay: Anti-biofilm effect in methicillin-resistant Staphylococcus aureus N315 assessed as biofilm destruction by measuring eradication rate at MIC; assay type: functional
Staphylococcus aureus [17] = assay: Antibacterial activity against methicillin-resistant Staphylococcus aureus N315 assessed as resistance development measured after 10 generations; assay type: functional, organism-based
Enterococcus faecalis = assay: Antibacterial activity against Enterococcus faecalis assessed as inhibition of bacterial growth measured after 24 hrs incubation; assay type: functional
Staphylococcus aureus [18] = assay: Antibacterial activity against methicillin-resistant Staphylococcus aureus N315 assessed as resistance development measured after 18 generations; assay type: functional, organism-based
Escherichia coli [19] = assay: Induction of lipid peroxidation in Escherichia coli assessed as malondialdehyde (MDA) level production at 4 time of MIC; assay type: functional, organism-based
Staphylococcus aureus [20] = assay: Antibacterial activity against Staphylococcus aureus assessed as inhibition of bacterial growth measured after 24 hrs incubation; assay type: functional
Cell membrane [21] = assay: Induction of cell membrane damage in methicillin-resistant Staphylococcus aureus N315 assessed as increase in density of red fluorescence at 4 times of MIC by Calcein-AM/PI dual staining based fluorescence microscopy; assay type: cell membranes
Escherichia coli [22] = assay: Induction of ROS production in Escherichia coli assessed as fluorescence intensity at 2 times of MIC by DCFH-DA (dichlorofluorescin diacetate) probe based assay; assay type: functional
Escherichia coli [23] = assay: Anti-biofilm effect in Escherichia coli assessed as biofilm destruction by measuring eradication rate at MIC; assay type: functional
Escherichia coli [24] = assay: Antibacterial activity against Escherichia coli assessed as reduction in bacterial burden at 2 to 4 times of MIC measured within 5 hrs by time-dependent kinetics assay; assay type: functional, organism-based
Staphylococcus aureus [25] = assay: Anti-biofilm effect in methicillin-resistant Staphylococcus aureus N315 assessed as inhibition of biofilm formation by measuring reduction in exo-polysaccharide content at 6 times of MIC relative to control; assay type: functional
Calf thymus DNA [26] = assay: Binding affinity to calf thymus DNA assessed as DNA intercalation with drug by […] assay; assay type: nucleic-acid assay; conditions: Bos taurus
Escherichia coli [27] = assay: Antibacterial activity against Escherichia coli assessed as reduction in bacterial burden at 2 to 4 times of MIC measured upto 7 hrs by time-dependent kinetics assay; assay type: functional, organism-based
Staphylococcus aureus [28] = assay: Antibacterial activity against methicillin-resistant Staphylococcus aureus N315 assessed as resistance development by measuring compound concentration required to inhibit measured after 18 generations; assay type: functional
Staphylococcus aureus [29] = assay: Induction of ROS production in methicillin-resistant Staphylococcus aureus N315 assessed as fluorescence intensity at 2 times of MIC by DCFH-DA (dichlorofluorescin diacetate) probe based assay
Escherichia coli [30] = assay: Reduction in metabolic activity in Escherichia coli at 6 times of MIC by Alamar Blue assay relative to control; assay type: functional; set-up: scale not given: the % may be the effect or the level left
Escherichia coli [31] = assay: Antibacterial activity against Escherichia coli ATCC 25922 assessed as inhibition of bacterial growth measured after 24 hrs incubation; assay type: functional
Escherichia coli [32] = assay: Reduction in metabolic activity in Escherichia coli by Alamar Blue assay; assay type: functional, organism-based
Escherichia coli [33] = assay: Antibacterial activity against Escherichia coli assessed as resistance development measured after 18 generations; assay type: functional, organism-based
Calf thymus DNA [34] = assay: Binding affinity to calf thymus DNA assessed as hypochromism by spectroscopic analysis; assay type: nucleic-acid assay; conditions: Bos taurus
Calf thymus DNA [35] = assay: Binding affinity to calf thymus DNA by acridine orange staining based competitive binding assay; assay type: nucleic-acid assay; conditions: Bos taurus
Staphylococcus aureus [36] = assay: Reduction in metabolic activity in methicillin-resistant Staphylococcus aureus N315 at 6 times of MIC by Alamar Blue assay relative to control; assay type: functional; set-up: scale not given: the % may be the effect or the level left
Escherichia coli [37] = assay: Antibacterial activity against Escherichia coli assessed as inhibition of bacterial growth measured after 24 hrs incubation; assay type: functional
Acinetobacter baumannii = assay: Antibacterial activity against Acinetobacter baumannii assessed as inhibition of bacterial growth measured after 24 hrs incubation; assay type: functional
Staphylococcus aureus [38] = assay: Antibacterial activity against Staphylococcus aureus ATCC 25923 assessed as inhibition of bacterial growth measured after 24 hrs incubation; assay type: functional
[39] = Hemolytic activity in human red blood cells assessed as hemolysis rate at 512 ug/ml relative to control; assay type: toxicity, cell-based, Erythrocyte; conditions: red blood cells (erythrocytes), at 512 µg/mL, read-out: Activity
Escherichia coli [40] = assay: Antibacterial activity against Escherichia coli assessed as resistance development by measuring compound concentration required to inhibit measured after 18 generations; assay type: functional
Staphylococcus aureus [41] = assay: Antibacterial activity against Staphylococcus aureus ATCC 29213 assessed as inhibition of bacterial growth measured after 24 hrs incubation; assay type: functional
Klebsiella pneumoniae = assay: Antibacterial activity against Klebsiella pneumonia assessed as inhibition of bacterial growth measured after 24 hrs incubation; assay type: functional
Pseudomonas aeruginosa [42] = assay: Antibacterial activity against Pseudomonas aeruginosa assessed as inhibition of bacterial growth measured after 24 hrs incubation; assay type: functional
Pseudomonas aeruginosa [43] = assay: Antibacterial activity against Pseudomonas aeruginosa ATCC 27853 assessed as inhibition of bacterial growth measured after 24 hrs incubation; assay type: functional

CCn1cc(C(=O)O)c(=O)c2cc(F)c(N3CCN(C(=O)/C(C#N)=C/c4cn(CCO)c5ccccc45)CC3)cc21
Activity (Escherichia coli [1]): Dose-Dependent Effect
inhibition (INH) (Escherichia coli [2]): <50%
Activity (Staphylococcus aureus [3]): Dose-Dependent Effect
inhibition (INH) (Escherichia coli [4]): >60%
hemolysis at 64 ug/ml [5]: < 1.8%
Activity (Cell membrane [6]): Active
inhibition (INH) (Staphylococcus aureus [7]): >60%
Activity (Staphylococcus aureus [8]): Active
Activity (Staphylococcus aureus [9]): Active
Activity (Staphylococcus aureus [10]): Active
Flu intensity (Cell membrane [11]): 1250
MIC (Staphylococcus aureus [12]): 0.25 µg/mL (≈ 0.448 µM)
Activity (Escherichia coli [13]): inactive
Activity (Staphylococcus aureus [14]): Dose-Dependent Effect
Activity (Escherichia coli [15]): Dose-Dependent Effect
inhibition (INH) (Staphylococcus aureus [16]): 22.1%
Activity (Staphylococcus aureus [17]): inactive
MIC (Enterococcus faecalis): 0.25 µg/mL (≈ 0.448 µM)
Activity (Staphylococcus aureus [18]): Active
Activity (Escherichia coli [19]): Active
MIC (Staphylococcus aureus [20]): 0.25 µg/mL (≈ 0.448 µM)
Activity (Cell membrane [21]): Active
Activity (Escherichia coli [22]): >50%
inhibition (INH) (Escherichia coli [23]): 40.3%
Activity (Escherichia coli [24]): Active
inhibition (INH) (Staphylococcus aureus [25]): <50%
Activity (Calf thymus DNA [26]): Active
Activity (Escherichia coli [27]): Active
MIC (Staphylococcus aureus [28]): 64 µg/mL (≈ 115 µM)
Activity (Staphylococcus aureus [29]): >50%
Activity (Escherichia coli [30]): >50%
MIC (Escherichia coli [31]): 0.5 µg/mL (≈ 0.897 µM)
Activity (Escherichia coli [32]): Dose-Dependent Effect
Activity (Escherichia coli [33]): Active
Activity (Calf thymus DNA [34]): Active
Activity (Calf thymus DNA [35]): Active
Activity (Staphylococcus aureus [36]): >50%
MIC (Escherichia coli [37]): 0.25 µg/mL (≈ 0.448 µM)
MIC (Acinetobacter baumannii): 0.5 µg/mL (≈ 0.897 µM)
MIC (Staphylococcus aureus [38]): 0.25 µg/mL (≈ 0.448 µM)
hemolysis at 512 ug/ml [39]: < 1.8%
MIC (Escherichia coli [40]): 32 µg/mL (≈ 57.4 µM)
MIC (Staphylococcus aureus [41]): 0.25 µg/mL (≈ 0.448 µM)
MIC (Klebsiella pneumoniae): 0.25 µg/mL (≈ 0.448 µM)
MIC (Pseudomonas aeruginosa [42]): 1 µg/mL (≈ 1.79 µM)
MIC (Pseudomonas aeruginosa [43]): 0.5 µg/mL (≈ 0.897 µM)
